Assay results as given in patent US20250270209A1 (INTERLINE THERAPEUTICS, INC., priority 2022, published 2025).

Legend:
[1] = target: LRRK2 wild type enzyme (Homo sapiens, UniProt Q5S007); test: Biochemical Assay: LRRK2 TR-FRET (LanthaScreen) kinase assay with LRRKtide substrate; details: LRRK2 Inhibition, Table 8
In short: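 Human wild-type LRRK2 (3 nM) preincubated 15 min with compound (11-point, 3-fold, top 10 μM), then reacted 120 min at 23 °C with 400 nM LRRKtide and 25 μM ATP, pH 8.0. Stopped with EDTA; Tb-anti-pLRRKtide TR-FRET read after 30 min.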

[2] = target: T1, wild type LRRK2 overexpressed in recombinant HEK-293T cells (Homo sapiens, UniProt Q5S007); test: pS935 LRRK2 Cell Assay (HTRF, phospho-LRRK2 Ser935); assay type: cell-based; details: LRRK2 Inhibition, Table 8, 2 hours compound incubation
T1 construct: host or cells: HEK293T (transient transfection with pCMV-LRRK2 WT plasmid)
T1 sequence (Q5S007 whole entry): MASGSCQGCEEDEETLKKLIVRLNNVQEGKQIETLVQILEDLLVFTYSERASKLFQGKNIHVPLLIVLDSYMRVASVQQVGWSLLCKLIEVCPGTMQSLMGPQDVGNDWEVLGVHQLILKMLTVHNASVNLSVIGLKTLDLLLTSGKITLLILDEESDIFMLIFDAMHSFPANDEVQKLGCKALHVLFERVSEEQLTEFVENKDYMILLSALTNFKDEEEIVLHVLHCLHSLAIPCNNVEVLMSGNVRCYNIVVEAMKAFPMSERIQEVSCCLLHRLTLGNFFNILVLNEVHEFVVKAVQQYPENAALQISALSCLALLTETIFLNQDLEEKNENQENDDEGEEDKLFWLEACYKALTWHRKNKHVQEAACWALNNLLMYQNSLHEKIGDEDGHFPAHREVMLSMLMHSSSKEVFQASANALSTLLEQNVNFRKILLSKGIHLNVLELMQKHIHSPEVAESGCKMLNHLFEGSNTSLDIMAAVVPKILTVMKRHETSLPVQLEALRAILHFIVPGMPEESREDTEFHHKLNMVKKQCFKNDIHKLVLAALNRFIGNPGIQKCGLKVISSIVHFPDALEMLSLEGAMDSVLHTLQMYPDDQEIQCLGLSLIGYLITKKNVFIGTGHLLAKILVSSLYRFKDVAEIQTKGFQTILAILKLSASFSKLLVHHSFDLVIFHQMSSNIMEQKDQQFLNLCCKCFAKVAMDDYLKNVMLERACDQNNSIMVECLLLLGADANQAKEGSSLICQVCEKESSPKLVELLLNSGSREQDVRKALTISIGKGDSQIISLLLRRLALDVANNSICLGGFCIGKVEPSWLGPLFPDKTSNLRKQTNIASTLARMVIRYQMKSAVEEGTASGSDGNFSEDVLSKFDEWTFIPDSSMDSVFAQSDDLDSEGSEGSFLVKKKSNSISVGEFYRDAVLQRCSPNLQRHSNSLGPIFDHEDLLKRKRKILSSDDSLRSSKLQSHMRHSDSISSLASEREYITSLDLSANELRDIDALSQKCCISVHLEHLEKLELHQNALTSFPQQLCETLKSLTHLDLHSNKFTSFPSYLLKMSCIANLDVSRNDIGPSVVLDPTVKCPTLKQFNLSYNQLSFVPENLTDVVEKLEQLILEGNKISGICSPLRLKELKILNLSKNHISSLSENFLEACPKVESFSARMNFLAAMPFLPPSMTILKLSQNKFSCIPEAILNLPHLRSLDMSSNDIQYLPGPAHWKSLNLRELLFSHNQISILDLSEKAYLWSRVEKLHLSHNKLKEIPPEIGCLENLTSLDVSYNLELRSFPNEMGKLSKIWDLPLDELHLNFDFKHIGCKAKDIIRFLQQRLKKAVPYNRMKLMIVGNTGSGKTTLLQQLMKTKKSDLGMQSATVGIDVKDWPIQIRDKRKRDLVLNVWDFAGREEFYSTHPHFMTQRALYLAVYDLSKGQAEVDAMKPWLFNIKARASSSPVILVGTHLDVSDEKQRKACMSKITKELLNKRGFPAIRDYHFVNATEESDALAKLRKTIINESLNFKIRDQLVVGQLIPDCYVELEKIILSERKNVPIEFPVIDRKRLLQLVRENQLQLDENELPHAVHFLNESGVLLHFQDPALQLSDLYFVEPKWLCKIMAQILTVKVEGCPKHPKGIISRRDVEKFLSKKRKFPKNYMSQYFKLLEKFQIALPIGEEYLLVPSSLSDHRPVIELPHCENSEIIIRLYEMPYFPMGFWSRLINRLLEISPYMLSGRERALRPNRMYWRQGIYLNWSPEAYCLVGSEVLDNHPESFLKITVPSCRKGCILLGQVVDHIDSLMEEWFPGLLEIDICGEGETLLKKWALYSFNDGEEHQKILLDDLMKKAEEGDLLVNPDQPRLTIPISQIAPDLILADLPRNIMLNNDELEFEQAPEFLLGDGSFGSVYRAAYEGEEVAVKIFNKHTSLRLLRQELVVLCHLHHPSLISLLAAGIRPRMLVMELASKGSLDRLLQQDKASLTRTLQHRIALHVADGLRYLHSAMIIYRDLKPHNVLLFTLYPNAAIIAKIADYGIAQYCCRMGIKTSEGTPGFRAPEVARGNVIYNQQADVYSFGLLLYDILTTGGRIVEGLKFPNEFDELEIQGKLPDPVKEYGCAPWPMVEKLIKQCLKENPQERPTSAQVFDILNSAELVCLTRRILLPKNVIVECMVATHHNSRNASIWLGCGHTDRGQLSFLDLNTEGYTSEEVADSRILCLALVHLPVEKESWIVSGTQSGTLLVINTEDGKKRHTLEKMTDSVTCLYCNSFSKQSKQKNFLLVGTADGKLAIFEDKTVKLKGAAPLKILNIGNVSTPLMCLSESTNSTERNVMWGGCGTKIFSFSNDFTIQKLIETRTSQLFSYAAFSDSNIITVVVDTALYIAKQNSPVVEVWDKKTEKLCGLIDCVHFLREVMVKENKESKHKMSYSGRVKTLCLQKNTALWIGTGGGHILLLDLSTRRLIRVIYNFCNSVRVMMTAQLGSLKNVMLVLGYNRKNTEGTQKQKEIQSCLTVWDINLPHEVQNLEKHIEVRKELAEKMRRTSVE
In short: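 HEK-293T cells transiently transfected with wild-type LRRK2 for 24 h, plated overnight, then treated 2 h at 37° C with compound (top 10 μM, 3-fold, 9 doses, duplicates, 0.2% DMSO). Lysates probed overnight at 23° C by sandwich HTRF for pSer935; 665/615 nm ratio read.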

Chain of LRRK2 wild type enzyme (Q5S007 whole entry): as above

SMILES	IC50 [1]	IC50 [2]
COc1ncnc(OC)c1NC(=O)Cc1nc2cnc3ccc(C#N)cc3c2n1[C@@H]1CCO[C@H](C)C1 [Compound 247, N-(4,6-dimethoxy-5-pyrimidinyl){3-[(2R,4R)-2-methyltetrahydro-2H-pyran-4-yl]-12-cyano-3,5,8-triazatricyclo[7.4.0.0^2,6]trideca-1(9),2(6),4,7,10,12-hexaen-4-yl}acetamide]	0.348 nM	4.06 nM
C[C@@H]1C[C@H](n2c(CC(=O)Nc3cccn(CC(C)(C)O)c3=O)nc3cnc4ccc(C#N)cc4c32)CCO1 [Compound 240, N-[1-(2-hydroxy-2-methylpropyl)-2-oxo-1,2-dihydro-3-pyridyl]{3-[(2R,4R)-2-methyltetrahydro-2H-pyran-4-yl]-12-cyano-3,5,8-triazatricyclo[7.4.0.0^2,6]trideca-1(9),2(6),4,7,10,12-hexaen-4-yl}acetamide]	0.328 nM	26.7 nM
C[C@@H]1C[C@H](n2c(CC(=O)N(C)CC(F)(F)F)nc3cnc4ccc(C#N)cc4c32)CCO1 [Compound 81, 2-{8-cyano-1-[(2R,4R)-2-methyloxan-4-yl]-1H-imidazo[4,5-c]quinolin-2-yl}-N-methyl-N-(2,2,2-trifluoroethyl)acetamide]	10.5 nM	728 nM
COc1ccnc(C)c1NC(=O)Cc1nc2cnc3ccc(C#N)cc3c2n1[C@@H]1CCO[C@H](C)C1 [Compound 227, N-(4-methoxy-2-methyl-3-pyridyl){3-[(2R,4R)-2-methyltetrahydro-2H-pyran-4-yl]-12-cyano-3,5,8-triazatricyclo[7.4.0.0^2,6]trideca-1,4,6,8,10,12-hexaen-4-yl}acetamide]	0.359 nM	14.4 nM
C[C@@H]1C[C@H](n2c(CC(=O)NC3CC3)nc3cnc4ccc(Cl)cc4c32)CCO1 [Compound 183, 2-{8-chloro-1-[(2R,4R)-2-methyloxan-4-yl]-1H-imidazo[4,5-c]quinolin-2-yl}-N-cyclopropylacetamide]	0.258 nM	11.1 nM
C[C@@H]1C[C@H](n2c(CC(=O)NC3CC3(C)C)nc3cnc4ccc(C#N)cc4c32)CCO1 (stereo partly drawn) [Compound 252, N-2,2-dimethylcyclopropyl{3-[(2R,4R)-2-methyltetrahydro-2H-pyran-4-yl]-12-cyano-3,5,8-triazatricyclo[7.4.0.0^2,6]trideca-1,4,6,8,10,12-hexaen-4-yl}acetamide]	0.645 nM	18.1 nM
CCOc1ccc(NC(=O)Cc2nc3cnc4ccc(C#N)cc4c3n2[C@@H]2CCO[C@H](C)C2)cn1 [Compound 274, N-(6-ethoxy-3-pyridyl){3-[(2R,4R)-2-methyltetrahydro-2H-pyran-4-yl]-12-cyano-3,5,8-triazatricyclo[7.4.0.0^2,6]trideca-1,4,6,8,10,12-hexaen-4-yl}acetamide]	0.445 nM	7.97 nM
Cc1ccc(CN2CC(c3nc4cnc5ccc(C#N)cc5c4n3[C@@H]3CCO[C@H](C)C3)CC2=O)cn1 (stereo partly drawn) [Compound 13, 1-[(2R,4R)-2-methyloxan-4-yl]-2-{1-[(6-methylpyridin-3-yl)methyl]-5-oxopyrrolidin-3-yl}-1H-imidazo[4,5-c]quinoline-8-carbonitrile]	1.19 nM	180 nM
C[C@@H]1C[C@H](n2c(CC(=O)Nc3cnn(C)c3CO)nc3cnc4ccc(C#N)cc4c32)CCO1 [Compound 158, 2-{8-cyano-1-[(2R,4R)-2-methyloxan-4-yl]-1H-imidazo[4,5-c]quinolin-2-yl}-N-[5-(hydroxymethyl)-1-methyl-1H-pyrazol-4-yl]acetamide]	0.454 nM	272 nM
COCCn1ccc(NC(=O)Cc2nc3cnc4ccc(C#N)cc4c3n2[C@@H]2CCO[C@H](C)C2)n1 [Compound 174, 2-{8-cyano-1-[(2R,4R)-2-methyloxan-4-yl]-1H-imidazo[4,5-c]quinolin-2-yl}-N-[1-(2-methoxyethyl)-1H-pyrazol-3-yl]acetamide]	0.316 nM	5.35 nM
